Reference: patent US6479435B1, “Diaryl ethers and processes for their preparation and herbicidal and desiccant compositions containing them” (ISK Americas Incorporated, priority 1997, dated 2002)

Legend:
Assay type in all cases: in vivo
[1] = test system: common ragweed (Ambrosia artemisiifolia L., AMBEL); experiment: Post-emerge greenhouse herbicide test, phytotoxicity rating; settings: 14 days after application
Text: A standard greenhouse herbicide activity screening system was used to evaluate the herbicidal efficacy and crop safety of these test compounds. Six broadleaf weed species including redroot pigweed (Amaranthus retroflexus, AMARE), velvetleaf (Abutilon theophrasti, ABUTH), sicklepod (Cassia obtusifolia, CASOB), ivyleaf morningglory (Ipomoea hederacea, IPOHE), lambsquarters (Chenopodium album, CHEAL) and common ragweed (Ambrosia artemisiifolia L., AMBEL) were used as test species. Four grass weed species including green foxtail (Setaria viridis, SETVI), barnyardgrass (Echinochloa crusgalli, ECHCG), Johnsongrass (Sorghum halepense, SORHA), and large crabgrass (Digitaria sanguinalis, DIGSA) were also used. In addition, three crop species, field corn (Zea mays L., var. Dekalb 535, CORN), soybean (Glycine max L., var. Pella 86, SOY), and upland rice (Oryza sp., var.Tebonnet, RICE) were included.
All test compounds were dissolved in acetone and applied to the test units in a volume of 187 l/ha. […] Plants were arranged on a shelf so that the top of the canopy (post-emerge) or top of the soil surface (pre-emerge) was 40-45 cm below the nozzle. Pressurized air was used to force the test solution through the nozzle as it was mechanically advanced (via electrically driven chain drive) over the top of all test plants/pots. This application simulates a typical commercial field herbicide application.
In the post-emerge test, a commercial non-ionic surfactant was also included (0.25% v/v) to enhance wetting of the leaf surfaces Qf target plants at rates ranging from 63 g ai/ha to 1000 g ai/ha. For post-emerge tests, seeds were planted 8-21 days prior to the test to allow emergence and good foliage development prior to application of the test substances. At the time of the post-emerge application, plants of all species were usually at the 2-3 leaf stage of development. Post-emerge test units were always bottom-watered.
At 14 days after application of the test materials, phytotoxicity ratings were recorded. A rating scale of 0-100 was used as previously described in Research Methods in Weed Science, 2nd edition, B. Truelove, Ed., Southern Weed Science Society, Auburn University, Auburn, Ala., 1977. Briefly, “0” corresponds to no damage and “100” corresponds to complete death of all plants in the test unit. This scale was used both to determine efficacy against weed species and damage to crop species. Herbicide activity data for various compounds of this invention, which are shown by compound number in Tables 1-9, are shown in Tables 13 and 14.

[2] = test system: sicklepod (Cassia obtusifolia, CASOB); experiment: as above; settings: 14 days after application
Outline: (§1)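 Plants at the 2-3 leaf stage, sown 8-21 days earlier, were track-sprayed post-emergence with compound in acetone plus 0.25% v/v non-ionic surfactant at 63-1000 g ai/ha (187 l/ha). Damage was rated at 14 days on a 0-100 scale (0 none, 100 all plants dead), for both crop injury and weed control.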

[3] = test system: Johnsongrass (Sorghum halepense, SORHA); experiment: as above; settings: 14 days after application
Outline: as §1

[4] = test system: barnyardgrass (Echinochloa crusgalli, ECHCG); experiment: as above; settings: 14 days after application
Outline: as §1

[5] = test system: ivyleaf morningglory (Ipomoea hederacea, IPOHE); experiment: as above; settings: 14 days after application
Outline: as §1

[6] = test system: redroot pigweed (Amaranthus retroflexus, AMARE); experiment: as above; settings: 14 days after application
Outline: as §1

[7] = test system: lambsquarters (Chenopodium album, CHEAL); experiment: as above; settings: 14 days after application
Outline: as §1

[8] = test system: velvetleaf (Abutilon theophrasti, ABUTH); experiment: as above; settings: 14 days after application
Outline: as §1

[9] = test system: large crabgrass (Digitaria sanguinalis, DIGSA); experiment: as above; settings: 14 days after application
Outline: as §1

[10] = test system: green foxtail (Setaria viridis, SETVI); experiment: as above; settings: 14 days after application
Outline: as §1

[11] = test system: sicklepod (Cassia obtusifolia, CASOB); experiment: Pre-emerge greenhouse herbicide test, phytotoxicity rating; settings: 14 days after application, rating scale 0-100
Outline: (§2)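 Seeds sown in sandy loam one day before track-sprayer application of acetone solutions at 125–1000 g ai/ha (187 l/ha), then surface-watered to incorporate and bottom-watered. Injury scored visually at 14 days on a 0–100 scale (0 no damage, 100 complete death).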

[12] = test system: Johnsongrass (Sorghum halepense, SORHA); experiment: as above; settings: 14 days after application, rating scale 0-100
Outline: as §2

[13] = test system: barnyardgrass (Echinochloa crusgalli, ECHCG); experiment: as above; settings: 14 days after application, rating scale 0-100
Outline: as §2

[14] = test system: ivyleaf morningglory (Ipomoea hederacea, IPOHE); experiment: as above; settings: 14 days after application, rating scale 0-100
Outline: as §2

[15] = test system: redroot pigweed (Amaranthus retroflexus, AMARE); experiment: as above; settings: 14 days after application, rating scale 0-100
Outline: as §2

[16] = test system: lambsquarters (Chenopodium album, CHEAL); experiment: as above; settings: 14 days after application, rating scale 0-100
Outline: as §2

[17] = test system: velvetleaf (Abutilon theophrasti, ABUTH); experiment: as above; settings: 14 days after application, rating scale 0-100
Outline: as §2

[18] = test system: large crabgrass (Digitaria sanguinalis, DIGSA); experiment: as above; settings: 14 days after application, rating scale 0-100
Outline: as §2

[19] = test system: common ragweed (Ambrosia artemisiifolia L., AMBEL); experiment: as above; settings: 14 days after application, rating scale 0-100
Outline: as §2

[20] = test system: green foxtail (Setaria viridis, SETVI); experiment: as above; settings: 14 days after application, rating scale 0-100
Outline: as §2

SMILES	AMBEL phytotoxicity rating (0-100) ([1]; 63 g al/ha)	AMBEL phytotoxicity rating (0-100) ([1]; 500 g al/ha)	CASOB phytotoxicity rating (0-100) ([2]; 63 g al/ha)	CASOB phytotoxicity rating (0-100) ([2]; 500 g al/ha)	SORHA phytotoxicity rating (0-100) ([3]; 500 g al/ha)	ECHCG phytotoxicity rating (0-100) ([4]; 63 g al/ha)	ECHCG phytotoxicity rating (0-100) ([4]; 500 g al/ha)	IPOHE phytotoxicity rating (0-100) ([5]; 63 g al/ha)	IPOHE phytotoxicity rating (0-100) ([5]; 500 g al/ha)	AMARE phytotoxicity rating (0-100) ([6]; 63 g al/ha)	AMARE phytotoxicity rating (0-100) ([6]; 500 g al/ha)	CHEAL phytotoxicity rating (0-100) ([7]; 63 g al/ha)	CHEAL phytotoxicity rating (0-100) ([7]; 500 g al/ha)	ABUTH phytotoxicity rating (0-100) ([8]; 63 g al/ha)	ABUTH phytotoxicity rating (0-100) ([8]; 500 g al/ha)	DIGSA phytotoxicity rating (0-100) ([9]; 63 g al/ha)	DIGSA phytotoxicity rating (0-100) ([9]; 500 g al/ha)	SETVI phytotoxicity rating (0-100) ([10]; 63 g al/ha)	SETVI phytotoxicity rating (0-100) ([10]; 500 g al/ha)	phytotoxicity rating CASOB ([11]; 125 g ai/ha)	further results
COc1nc(OC)nc(Oc2cc(-c3nc(C)n(C(F)F)c3Cl)c(F)cc2Cl)n1 [Compound 2-4, 5-chloro-4-(4-chloro-2-fluoro-5-(4,6-dimethoxy-2-triazinyloxy)phenyl)-1-difluoromethyl-2-methylimidazole]	0	0	0	0	50	0	0	0	75	0	90	0	70	0	80	0	10	0	50	0	SORHA phytotoxicity rating (0-100) ([3]; 63 g al/ha): 0; phytotoxicity rating CASOB ([11]; 500 g ai/ha): 10; phytotoxicity rating SORHA ([12]; 125 g ai/ha): 0; phytotoxicity rating SORHA ([12]; 500 g ai/ha): 40; phytotoxicity rating ECHCG ([13]; 125 g ai/ha): 0; phytotoxicity rating ECHCG ([13]; 500 g ai/ha): 0; phytotoxicity rating IPOHE ([14]; 125 g ai/ha): 10; phytotoxicity rating IPOHE ([14]; 500 g ai/ha): 0; phytotoxicity rating AMARE ([15]; 125 g ai/ha): 70; phytotoxicity rating AMARE ([15]; 500 g ai/ha): 100; phytotoxicity rating CHEAL ([16]; 125 g ai/ha): 70; phytotoxicity rating CHEAL ([16]; 500 g ai/ha): 100; phytotoxicity rating ABUTH ([17]; 125 g ai/ha): 10; phytotoxicity rating ABUTH ([17]; 500 g ai/ha): 70; phytotoxicity rating DIGSA ([18]; 125 g ai/ha): 0; phytotoxicity rating DIGSA ([18]; 500 g ai/ha): 50; phytotoxicity rating AMBEL ([19]; 125 g ai/ha): 10; phytotoxicity rating AMBEL ([19]; 500 g ai/ha): 0; phytotoxicity rating SETVI ([20]; 125 g ai/ha): 20; phytotoxicity rating SETVI ([20]; 500 g ai/ha): 95
O=c1n(CCCF)nnn1-c1cc(Oc2ncccn2)c(Cl)cc1F [Compound 6-10, 1-[4-chloro-2-fluoro-5-(2-pyrimidyloxy)phenyl]-4-(3-fluoropropyl)-1,4-dihydro-5-oxo-5H-tetrazole]	30	100	30	100	100	30	100	100	100	90	100	90	100	100	100	50	100	30	100	40	SORHA phytotoxicity rating (0-100) ([3]; 63 g al/ha): 0; phytotoxicity rating CASOB ([11]; 500 g ai/ha): 100; phytotoxicity rating SORHA ([12]; 125 g ai/ha): 100; phytotoxicity rating SORHA ([12]; 500 g ai/ha): 100; phytotoxicity rating ECHCG ([13]; 125 g ai/ha): 100; phytotoxicity rating ECHCG ([13]; 500 g ai/ha): 100; phytotoxicity rating IPOHE ([14]; 125 g ai/ha): 100; phytotoxicity rating IPOHE ([14]; 500 g ai/ha): 100; phytotoxicity rating AMARE ([15]; 125 g ai/ha): 100; phytotoxicity rating AMARE ([15]; 500 g ai/ha): 100; phytotoxicity rating CHEAL ([16]; 125 g ai/ha): 100; phytotoxicity rating CHEAL ([16]; 500 g ai/ha): 100; phytotoxicity rating ABUTH ([17]; 125 g ai/ha): 100; phytotoxicity rating ABUTH ([17]; 500 g ai/ha): 100; phytotoxicity rating DIGSA ([18]; 125 g ai/ha): 100; phytotoxicity rating DIGSA ([18]; 500 g ai/ha): 100; phytotoxicity rating AMBEL ([19]; 125 g ai/ha): 100; phytotoxicity rating AMBEL ([19]; 500 g ai/ha): 100; phytotoxicity rating SETVI ([20]; 125 g ai/ha): 100; phytotoxicity rating SETVI ([20]; 500 g ai/ha): 100
O=c1sc(=Nc2cc(Oc3ncccc3C(F)(F)F)c(Cl)cc2F)n2n1CCCC2 [Compound 7-1, 9-[4-chloro-2-fluoro-5-(3-trifluoromethyl-2-pyridyloxy)phenylimino]-8-thia-1,6-diazabicyclo[4,3,0]nonane-7-one]	95	100	70	20	30	0	20	100	100	100	100	100	100	90	100	30	60	20	60	50	phytotoxicity rating CASOB ([11]; 500 g ai/ha): 10; phytotoxicity rating SORHA ([12]; 125 g ai/ha): 0; phytotoxicity rating SORHA ([12]; 500 g ai/ha): 60; phytotoxicity rating ECHCG ([13]; 125 g ai/ha): 0; phytotoxicity rating ECHCG ([13]; 500 g ai/ha): 0; phytotoxicity rating IPOHE ([14]; 125 g ai/ha): 0; phytotoxicity rating IPOHE ([14]; 500 g ai/ha): 0; phytotoxicity rating AMARE ([15]; 125 g ai/ha): 100; phytotoxicity rating AMARE ([15]; 500 g ai/ha): 100; phytotoxicity rating CHEAL ([16]; 125 g ai/ha): 100; phytotoxicity rating CHEAL ([16]; 500 g ai/ha): 100; phytotoxicity rating ABUTH ([17]; 125 g ai/ha): 90; phytotoxicity rating ABUTH ([17]; 500 g ai/ha): 100; phytotoxicity rating DIGSA ([18]; 125 g ai/ha): 60; phytotoxicity rating DIGSA ([18]; 500 g ai/ha): 90; phytotoxicity rating AMBEL ([19]; 125 g ai/ha): 80; phytotoxicity rating AMBEL ([19]; 500 g ai/ha): 90; phytotoxicity rating SETVI ([20]; 125 g ai/ha): 90; phytotoxicity rating SETVI ([20]; 500 g ai/ha): 100
